Data as given in patent publication US9187472B2 (AbbVie Inc., priority 2012, dated 2015).

Columns and labels:
NAMPT = NAMPT (Homo sapiens, UniProt P43490); assay: TR-FRET Binding Assay of NAMPT with PRPP; conditions: with 200 μM PRPP and 2.5 mM ATP; 2 nM NAMPT, 2 nM probe, 16 hours equilibration
How it was run: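 NAMPT 2 nM + probe 2 nM + Tb-anti-His Ab 1 nM; PRPP 200 μM, ATP 2.5 mM, DMSO 2%; 16 h equilibration before TR-FRET read.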

[1] = biological target: NAMPT (human, recombinant, C-terminally His-tagged) (Homo sapiens, UniProt P43490); assay: Time-Resolved Fluorescence Resonance Energy Transfer (TR-FRET) Binding Assay of NAMPT; conditions: without substrates; 6.8 nM NAMPT, 200 nM probe, 3 hours equilibration
Sequence of NAMPT (human, recombinant, C-terminally His-tagged) (P43490 whole entry): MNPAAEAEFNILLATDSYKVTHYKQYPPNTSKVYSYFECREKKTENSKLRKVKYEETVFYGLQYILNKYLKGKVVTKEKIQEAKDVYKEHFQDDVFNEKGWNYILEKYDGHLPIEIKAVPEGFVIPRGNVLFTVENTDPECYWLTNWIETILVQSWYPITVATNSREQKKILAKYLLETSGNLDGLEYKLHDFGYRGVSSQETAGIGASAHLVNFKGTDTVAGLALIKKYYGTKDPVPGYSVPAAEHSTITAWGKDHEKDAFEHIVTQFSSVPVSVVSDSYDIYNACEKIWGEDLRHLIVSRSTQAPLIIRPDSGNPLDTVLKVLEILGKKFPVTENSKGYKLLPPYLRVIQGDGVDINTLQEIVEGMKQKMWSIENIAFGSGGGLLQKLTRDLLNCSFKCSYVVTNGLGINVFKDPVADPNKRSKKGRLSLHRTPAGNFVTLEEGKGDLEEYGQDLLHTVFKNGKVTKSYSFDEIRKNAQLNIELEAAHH
How it was run: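 Read-out is the time-resolved FRET ratio Em520/Em495 (excitation 337 nm) between a terbium anti-His antibody (1 nM) on the enzyme and an Oregon Green 488-labelled nicotinamide-competitive inhibitor probe (200 nM). Enzyme was 6.8 nM, DMSO 2%, pH 7.5 HEPES buffer; 3 h room-temperature equilibration preceded reading.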

PC3 cells = assay: NAMPT Cell Proliferation Assay; assay type: cell-based; conditions: Homo sapiens, PC-3, 120 h, 5 days incubation, cell viability by Cell Titer Glo
How it was run: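 Seed PC3 at 500 cells/well (RPMI, 10% HI-FBS), attach overnight; add compound, 10-fold series 10 μM → 1×10^−5 μM; incubate 5 d, 37° C/5% CO2; luminescent viability readout; fit % inhibition sigmoidally for IC50.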

Sequence of NAMPT (P43490 whole entry): as above

SMILES	IC50 (NAMPT)	IC50 [1]	IC50 (PC3 cells)
Cc1ncsc1CCC(=O)N(CC1CCCO1)c1ncc(C(=O)NCc2ccc3nccn3c2)s1 (stereo not drawn) [Example 131, N-(imidazo[1,2-a]pyridin-6-ylmethyl)-2-{[3-(4-methyl-1,3-thiazol-5-yl)propanoyl](tetrahydrofuran-2-ylmethyl)amino}-1,3-thiazole-5-carboxamide]	1.67 nM	15.2 nM	2.17 nM
CC1(Cn2cc(-c3ccc(C(=O)NCc4ccn5ccnc5c4)s3)cn2)CCN(C(=O)OC(C)(C)C)CC1 [Example 755, tert-butyl 4-[(4-{5-[(imidazo[1,2-a]pyridin-7-ylmethyl)carbamoyl]thiophen-2-yl]-1H-pyrazol-1-yl)methyl}-4-methylpiperidine-1-carboxylate]	0.57 nM	13 nM	2.49 nM
O=C(CN1CCOCC1)Nc1ccc(NC(=O)Nc2ccc3nccn3c2)cc1 [Example 41]	1.15 nM	294 nM	138 nM
O=C(NCc1ccn2ccnc2c1)Nc1ccc(O[C@@H]2CCN(C(=O)C3CCOCC3)C2)cc1 [Example 333, 1-(imidazo[1,2-a]pyridin-7-ylmethyl)-3-(4-{[(3R)-1-(tetrahydro-2H-pyran-4-ylcarbonyl)pyrrolidin-3-yl]oxy}phenyl)urea]	0.346 nM	583 nM	116 nM
O=C(NCc1ccn2ccnc2c1)c1ccc(C2CCN(C(=O)C3CCOC3)CC2)cc1 (stereo not drawn) [Example 231, N-(imidazo[1,2-a]pyridin-7-ylmethyl)-4-[1-(tetrahydrofuran-3-ylcarbonyl)piperidin-4-yl]benzamide]	0.546 nM	817 nM	35.1 nM
COc1ccccc1C(=O)N1CCC(c2ccc(C(=O)NCc3ccn4ccnc4c3)s2)C1 (stereo not drawn) [Example 760, N-(imidazo[1,2-a]pyridin-7-ylmethyl)-5-[1-(2-methoxybenzoyl)pyrrolidin-3-yl]thiophene-2-carboxamide]	0.71 nM	28.9 nM	1.19 nM
Cc1cc(C(=O)N2CCC(c3ccc(C(=O)NCc4ccn5ccnc5c4)cc3)CC2)c(C)o1 [Example 519, 4-{1-[(2,5-dimethylfuran-3-yl)carbonyl]piperidin-4-yl}-N-(imidazo[1,2-a]pyridin-7-ylmethyl)benzamide]	0.338 nM	218 nM	60.9 nM
CC(C)(O)C(=O)N1CCC(Oc2ccc(C(=O)NCc3ccc4nccn4c3)cc2)CC1 [Example 166, 4-{[1-(2-hydroxy-2-methylpropanoyl)piperidin-4-yl]oxy}-N-(imidazo[1,2-a]pyridin-6-ylmethyl)benzamide]	1.81 nM	1430 nM	97.1 nM
O=C(NCCCCC1CCN(C(=O)c2ccccc2)CC1)Nc1ccc2nccn2c1 [Example 107, 1-[4-(1-benzoylpiperidin-4-yl)butyl]-3-imidazo[1,2-a]pyridin-6-ylurea]	0.492 nM	45.1 nM	10.8 nM
O=C(NCc1ccc2nccn2c1)c1ccc(OC2CCN(C(=O)C3COCCO3)CC2)cc1 (stereo not drawn) [Example 163, 4-{[1-(1,4-dioxan-2-ylcarbonyl)piperidin-4-yl]oxy}-N-(imidazo[1,2-a]pyridin-6-ylmethyl)benzamide]	6.29 nM	2100 nM	96.4 nM
CCC(C)(C)C(=O)N1CC(c2ccc(C(=O)NCc3ccn4ccnc4c3)cc2)C1 [Example 647, 4-[1-(2,2-dimethylbutanoyl)azetidin-3-yl]-N-(imidazo[1,2-a]pyridin-7-ylmethyl)benzamide]	0.672 nM	173 nM	6.99 nM
CC(C)[C@@H]1COC(=O)N1c1ncc(C(=O)NCc2ccn3ccnc3c2)s1 [Example 181, N-(imidazo[1,2-a]pyridin-7-ylmethyl)-2-[(4R)-2-oxo-4-(propan-2-yl)-1,3-oxazolidin-3-yl]-1,3-thiazole-5-carboxamide]	0.283 nM	349 nM	7.75 nM
O=C(NCc1ccn2ccnc2c1)Nc1ccc(C2CCN(C(=O)[C@@H]3CCCO3)CC2)cc1 [Example 288, 1-(imidazo[1,2-a]pyridin-7-ylmethyl)-3-(4-{1-[(2S)-tetrahydrofuran-2-ylcarbonyl]piperidin-4-yl}phenyl)urea]	0.568 nM	49.5 nM	8.11 nM
O=C(NCc1ccc2nccn2c1)c1ccc(OC2CCN(C(=O)[C@H]3CCCO3)CC2)cc1 [Example 165, N-(imidazo[1,2-a]pyridin-6-ylmethyl)-4-({1-[(2R)-tetrahydrofuran-2-ylcarbonyl]piperidin-4-yl}oxy)benzamide]	1.61 nM	1530 nM	137 nM
CC1(C(=O)N2CCC(c3ccc(C(=O)NCc4ccn5ccnc5c4)s3)C2)CC1 (stereo not drawn) [Example 795, N-(imidazo[1,2-a]pyridin-7-ylmethyl)-5-{1-[(1-methylcyclopropyl)carbonyl]pyrrolidin-3-yl}thiophene-2-carboxamide]	0.764 nM	89.6 nM	6.2 nM
O=C(NCc1ccn2ccnc2c1)Nc1ccc(OC2CCN(C(=O)c3cc(F)ccc3F)CC2)cc1 [Example 728, 1-(4-{[1-(2,5-difluorobenzoyl)piperidin-4-yl]oxy}phenyl)-3-(imidazo[1,2-a]pyridin-7-ylmethyl)urea]	0.496 nM	140 nM	21 nM
CC(C)C(=O)N1CCC(c2ccc(C(=O)NCc3cn4ccnc4cn3)cc2)CC1 [Example 811, N-(imidazo[1,2-a]pyrazin-6-ylmethyl)-4-[1-(2-methylpropanoyl)piperidin-4-yl]benzamide]	2.86 nM	99.8 nM	11.4 nM
O=C(NCc1ccn2ccnc2c1)c1ccc(C2CCN(C(=O)c3cccs3)C2)s1 (stereo not drawn) [Example 786, N-(imidazo[1,2-a]pyridin-7-ylmethyl)-5-[1-(thiophen-2-ylcarbonyl)pyrrolidin-3-yl]thiophene-2-carboxamide]	0.484 nM	44.4 nM	7.51 nM
O=C(NCc1ccn2ccnc2c1)c1ccc(-c2cnn(C[C@@H]3CCCO3)c2)s1 [Example 397, N-(imidazo[1,2-a]pyridin-7-ylmethyl)-5-{1-[(2S)-tetrahydrofuran-2-ylmethyl]-1H-pyrazol-4-yl}thiophene-2-carboxamide]	0.169 nM	17.7 nM	7.12 nM
O=C(NCc1ccn2ccnc2c1)c1ccc(C2CCN(C(=O)[C@H]3CCCO3)CC2)cc1 [Example 310, N-(imidazo[1,2-a]pyridin-7-ylmethyl)-4-{1-[(2R)-tetrahydrofuran-2-ylcarbonyl]piperidin-4-yl}benzamide]	0.217 nM	564 nM	24.4 nM
O=C(NCc1ccn2ccnc2c1)c1ccc(OC2CCN(C(=O)CN3CCOCC3)CC2)cc1 [Example 423, N-(imidazo[1,2-a]pyridin-7-ylmethyl)-4-{[1-(morpholin-4-ylacetyl)piperidin-4-yl]oxy}benzamide]	0.338 nM	8260 nM	187 nM
O=C(NCc1ccn2ccnc2c1)c1ccc(C2CCN(C(=O)c3cnccn3)CC2)cc1 [Example 523, N-(imidazo[1,2-a]pyridin-7-ylmethyl)-4-[1-(pyrazin-2-ylcarbonyl)piperidin-4-yl]benzamide]	0.422 nM	343 nM	17.1 nM
